Tests used:
Type in all cases: in vivo
[1] = tested on: waterhemp (common waterhemp, Amaranthus rudis); assay: Test C greenhouse herbicide test, pre- and postemergence
Source text: (§1) Seeds of plant species selected from blackgrass (Alopecurus myosuroides), ryegrass, Italian (Italian ryegrass, Lolium multiflorum), wheat (winter wheat, Triticum aestivum), galium (catchweed bedstraw, Galium aparine), corn (Zea mays), large crabgrass, large (large crabgrass, Digitaria sanguinalis), foxtail, giant (giant foxtail, Setaria faberii), johnsongrass (Sorghum halepense), lambsquarters (Chenopodium album), morningglory (Ipomoea coccinea), nutsedge, yellow (yellow nutsedge, Cyperus esculentus), pigweed (Amaranthus retroflexus), ragweed (common ragweed, Ambrosia elatior), soybean (Glycine max), barnyardgrass (Echinochloa crus-galli), oilseed rape (Brassica napus), waterhemp (common waterhemp, Amaranthus rudis), and velvetleaf (Abutilon theophrasti) were planted into a blend of loam soil and sand and treated preemergence with test chemicals formulated in a non-phytotoxic solvent mixture which included a surfactant.
(§2) At the same time, plants selected from these crop and weed species and also chickweed (common chickweed, Stellaria media), kochia (Kochia scoparia), and oat, wild (wild oat, Avena fatua), were planted in pots containing Redi-Earth® planting medium (Scotts Company, 14111 Scottslawn Road, Marysville, Ohio 43041) comprising spaghnum peat moss, vermiculite, wetting agent and starter nutrients and treated with postemergence applications of test chemicals formulated in the same manner. Plants ranged in height from 2 to 18 cm (1- to 4-leaf stage) for postemergence treatments. Treated plants and controls were maintained in a greenhouse for 13 to 15 d, after which time all species were compared to controls and visually evaluated. Plant response ratings, summarized in Table C, are based on a scale of 0 to 100 where 0 is no effect and 100 is complete control. A dash (-) response means no test result.

[2] = tested on: johnsongrass (Sorghum halepense); assay: as above
Source text: as §1, §2

[3] = tested on: ryegrass, Italian (Italian ryegrass, Lolium multiflorum); assay: Test A greenhouse herbicide test, pre- and postemergence
Method in brief: (§3)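 Seeds in loam–sand blend received a preemergence directed soil spray; plants at 2–10 cm, one- to two-leaf stage, received postemergence sprays. Compounds in a non-phytotoxic solvent with surfactant. After about 10 d in a greenhouse, injury rated visually versus untreated controls on a 0–100 scale (100 = complete control).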

[4] = tested on: kochia (Kochia scoparia); assay: as above
Method in brief: as §3

[5] = tested on: foxtail, giant (giant foxtail, Setaria faberii); assay: as above
Method in brief: as §3

[6] = tested on: ragweed (common ragweed, Ambrosia elatior); assay: as above
Method in brief: as §3

[7] = tested on: wheat (Triticum aestivum); assay: as above; conditions: Postemergence
Method in brief: as §3

[8] = tested on: corn (Zea mays); assay: as above; conditions: Postemergence
Method in brief: as §3

[9] = tested on: pigweed (Amaranthus retroflexus); assay: as above
Method in brief: as §3

[10] = tested on: barnyardgrass (Echinochloa crus-galli); assay: as above
Method in brief: as §3

[11] = Postemergence, 31 g ai/ha, scale 0 to 100 (0 no effect, 100 complete control)
[12] = Postemergence, 62 g ai/ha, 0 to 100 scale (0 no effect, 100 complete control)
[13] = Postemergence, 125 g ai/ha, scale 0 to 100, 0 is no effect, 100 is complete control
[14] = Postemergence, 250 g ai/ha, scale 0 to 100, 0 no effect, 100 complete control, 13 to 15 d
[15] = Postemergence, 125 g ai/ha, 0 to 100 scale where 0 is no effect and 100 is complete control
[16] = Postemergence, 500 g ai/ha, visual rating after approx. 10 d, 0 to 100 scale (0 no effect, 100 complete control)
[17] = Preemergence, 125 g ai/ha, 0 to 100 scale where 0 is no effect and 100 is complete control
[18] = Preemergence, 500 g ai/ha, 0 to 100 scale where 0 is no effect and 100 is complete control
[19] = 125 g ai/ha, 0 to 100 scale where 0 is no effect and 100 is complete control
[20] = 500 g ai/ha, visual rating after approx. 10 d, 0 to 100 scale (0 no effect, 100 complete control)
[21] = postemergence, 125 g ai/ha, scale 0 to 100, 0 no effect, 100 complete control
[22] = Preemergence, 31 g ai/ha, scale 0 to 100, 0 is no effect, 100 is complete control
[23] = Preemergence, 62 g ai/ha, scale 0 to 100, 0 is no effect, 100 is complete control
[24] = Preemergence, 125 g ai/ha, scale 0 to 100, 0 is no effect, 100 is complete control
[25] = Preemergence, 250 g ai/ha, scale 0 to 100, 0 no effect, 100 complete control

Structure (SMILES): Cc1nn(C)c(=O)c(-c2cccc3ccc(Br)cc23)c1O [Compound 126]
- Plant response rating, Waterhemp [1, 11]: 75
- Waterhemp plant response rating [1, 12]: 90
- Plant response rating, Waterhemp [1, 13]: 95
- Plant response rating, Waterhemp [1, 14]: 100
- Plant response rating, Johnsongrass [2, 11]: 10
- Johnsongrass plant response rating [2, 12]: 10
- Plant response rating, Johnsongrass [2, 13]: 15
- Plant response rating, Johnsongrass [2, 14]: 25
- Plant response rating, Ryegrass, Italian [3, 15]: 90
- Plant response rating, Ryegrass, Italian [3, 16]: 100
- Ryegrass, Italian plant response rating [3, 17]: 90
- Plant response rating, Ryegrass, Italian [3, 18]: 100
- Plant response rating, Kochia [4, 15]: 90
- Plant response rating, Kochia [4, 16]: 90
- Kochia plant response rating [4, 17]: 50
- Plant response rating, Kochia [4, 18]: 90
- Plant response rating, Foxtail, Giant [5, 15]: 20
- Plant response rating, Foxtail, Giant [5, 16]: 60
- Foxtail, Giant plant response rating [5, 17]: 10
- Plant response rating, Foxtail, Giant [5, 18]: 70
- Plant response rating, Ragweed [6, 15]: 90
- Plant response rating, Ragweed [6, 16]: 90
- Ragweed plant response rating [6, 17]: 70
- Plant response rating, Ragweed [6, 18]: 80
- Plant response rating, Wheat [7, 19]: 0
- Plant response rating, Wheat [7, 20]: 20
- Plant response rating, Corn [8, 19]: 0
- Plant response rating, Corn [8, 20]: 20
- Plant response rating, Pigweed [9, 15]: 90
- Plant response rating, Pigweed [9, 16]: 100
- Pigweed plant response rating [9, 17]: 100
- Plant response rating, Pigweed [9, 18]: 100
- Plant response rating, Barnyardgrass [10, 15]: 30
- Plant response rating, Barnyardgrass [10, 16]: 60
- Barnyardgrass plant response rating [10, 17]: 40
- Plant response rating, Barnyardgrass [10, 18]: 80

Structure (SMILES): COC(=O)Oc1c(C)nn(C)c(=O)c1-c1ccc(F)c2ccccc12 [Compound 130]
- Plant response rating, Waterhemp [1, 11]: 70
- Waterhemp plant response rating [1, 12]: 85
- Plant response rating, Waterhemp [1, 14]: 98
- Waterhemp plant response rating [1, 21]: 80
- Plant response rating, Johnsongrass [2, 11]: 5
- Johnsongrass plant response rating [2, 12]: 5
- Plant response rating, Johnsongrass [2, 14]: 20
- Johnsongrass plant response rating [2, 21]: 5
- Plant response rating, Ryegrass, Italian [3, 15]: 100
- Plant response rating, Ryegrass, Italian [3, 16]: 100
- Ryegrass, Italian plant response rating [3, 17]: 100
- Plant response rating, Ryegrass, Italian [3, 18]: 100
- Plant response rating, Kochia [4, 15]: 100
- Plant response rating, Kochia [4, 16]: 100
- Kochia plant response rating [4, 17]: 60
- Plant response rating, Kochia [4, 18]: 100
- Plant response rating, Foxtail, Giant [5, 15]: 70
- Plant response rating, Foxtail, Giant [5, 16]: 90
- Foxtail, Giant plant response rating [5, 17]: 30
- Plant response rating, Foxtail, Giant [5, 18]: 90
- Plant response rating, Ragweed [6, 15]: 70
- Plant response rating, Ragweed [6, 16]: 100
- Ragweed plant response rating [6, 17]: 60
- Plant response rating, Ragweed [6, 18]: 90
- Plant response rating, Wheat [7, 19]: 0
- Plant response rating, Wheat [7, 20]: 30
- Plant response rating, Corn [8, 19]: 0
- Plant response rating, Corn [8, 20]: 30
- Plant response rating, Pigweed [9, 15]: 100
- Plant response rating, Pigweed [9, 16]: 100
- Pigweed plant response rating [9, 17]: 90
- Plant response rating, Pigweed [9, 18]: 100
- Plant response rating, Barnyardgrass [10, 15]: 60
- Plant response rating, Barnyardgrass [10, 16]: 90
- Barnyardgrass plant response rating [10, 17]: 30
- Plant response rating, Barnyardgrass [10, 18]: 100

Structure (SMILES): CCC(=O)Oc1c(OC)nn(C)c(=O)c1-c1c(C)sc2ccc(Cl)cc12 [Compound 131]
- Plant response rating, Waterhemp [1, 22]: 95
- Plant response rating, Waterhemp [1, 23]: 98
- Plant response rating, Waterhemp [1, 24]: 98
- Waterhemp plant response rating [1, 25]: 100
- Plant response rating, Johnsongrass [2, 22]: 0
- Plant response rating, Johnsongrass [2, 23]: 0
- Plant response rating, Johnsongrass [2, 24]: 0
- Johnsongrass plant response rating [2, 25]: 20
- Plant response rating, Ryegrass, Italian [3, 15]: 90
- Plant response rating, Ryegrass, Italian [3, 16]: 90
- Ryegrass, Italian plant response rating [3, 17]: 90
- Plant response rating, Ryegrass, Italian [3, 18]: 90
- Plant response rating, Kochia [4, 15]: 60
- Plant response rating, Kochia [4, 16]: 80
- Kochia plant response rating [4, 17]: 0
- Plant response rating, Kochia [4, 18]: 20
- Plant response rating, Foxtail, Giant [5, 15]: 50
- Plant response rating, Foxtail, Giant [5, 16]: 80
- Foxtail, Giant plant response rating [5, 17]: 80
- Plant response rating, Foxtail, Giant [5, 18]: 90
- Plant response rating, Ragweed [6, 15]: 100
- Plant response rating, Ragweed [6, 16]: 90
- Ragweed plant response rating [6, 17]: 40
- Plant response rating, Ragweed [6, 18]: 60
- Plant response rating, Wheat [7, 19]: 0
- Plant response rating, Wheat [7, 20]: 20
- Plant response rating, Corn [8, 19]: 0
- Plant response rating, Corn [8, 20]: 10
- Plant response rating, Pigweed [9, 15]: 60
- Plant response rating, Pigweed [9, 16]: 90
- Pigweed plant response rating [9, 17]: 80
- Plant response rating, Pigweed [9, 18]: 100
- Plant response rating, Barnyardgrass [10, 15]: 0
- Plant response rating, Barnyardgrass [10, 16]: 20
- Barnyardgrass plant response rating [10, 17]: 0
- Plant response rating, Barnyardgrass [10, 18]: 40

Structure (SMILES): CC(=O)Oc1c(C)nn(C)c(=O)c1-c1c(C)sc2ccc(C(F)(F)F)cc12 [Compound 132]
- Plant response rating, Waterhemp [1, 11]: 40
- Waterhemp plant response rating [1, 12]: 60
- Plant response rating, Waterhemp [1, 14]: 75
- Plant response rating, Waterhemp [1, 22]: 90
- Plant response rating, Waterhemp [1, 23]: 85
- Plant response rating, Waterhemp [1, 24]: 95
- Waterhemp plant response rating [1, 25]: 98
- Waterhemp plant response rating [1, 21]: 80
- Plant response rating, Johnsongrass [2, 11]: 0
- Johnsongrass plant response rating [2, 12]: 5
- Plant response rating, Johnsongrass [2, 14]: 10
- Plant response rating, Johnsongrass [2, 22]: 15
- Plant response rating, Johnsongrass [2, 23]: 10
- Plant response rating, Johnsongrass [2, 24]: 55
- Johnsongrass plant response rating [2, 25]: 25
- Johnsongrass plant response rating [2, 21]: 5
- Plant response rating, Ryegrass, Italian [3, 15]: 100
- Plant response rating, Ryegrass, Italian [3, 16]: 100
- Ryegrass, Italian plant response rating [3, 17]: 90
- Plant response rating, Ryegrass, Italian [3, 18]: 90
- Plant response rating, Kochia [4, 15]: 50
- Plant response rating, Kochia [4, 16]: 80
- Kochia plant response rating [4, 17]: 60
- Plant response rating, Kochia [4, 18]: 90
- Plant response rating, Foxtail, Giant [5, 15]: 60
- Plant response rating, Foxtail, Giant [5, 16]: 80
- Foxtail, Giant plant response rating [5, 17]: 70
- Plant response rating, Foxtail, Giant [5, 18]: 90
- Plant response rating, Ragweed [6, 15]: 100
- Plant response rating, Ragweed [6, 16]: 100
- Ragweed plant response rating [6, 17]: 80
- Plant response rating, Ragweed [6, 18]: 90
- Plant response rating, Wheat [7, 19]: 0
- Plant response rating, Wheat [7, 20]: 20
- Plant response rating, Corn [8, 19]: 0
- Plant response rating, Corn [8, 20]: 10
- Plant response rating, Pigweed [9, 15]: 60
- Plant response rating, Pigweed [9, 16]: 90
- Pigweed plant response rating [9, 17]: 90
- Plant response rating, Pigweed [9, 18]: 100
- Plant response rating, Barnyardgrass [10, 15]: 0
- Plant response rating, Barnyardgrass [10, 16]: 30
- Barnyardgrass plant response rating [10, 17]: 0
- Plant response rating, Barnyardgrass [10, 18]: 70

— patent US10597388B2, “Pyridazinone herbicides” (FMC CORPORATION, priority 2014, dated 2020)
